From patent US6380198B1 (Laboratoire Medidom S.A., priority 1997, dated 2002)
Several values for one entry are separate records, joined by “and”; a condition that tells them apart may be missing. Equal values may be shown once.

Assays:
[1] = system: intraocular pressure of rabbits showing normal baseline intraocular pressure; assay: Intraocular pressure in rabbits with normal intraocular pressure after topical instillation; assay type: in vivo, rabbit (Vienna Blue, pigmented); conditions: Table 2, 50 μl eye-drops: 0.050% flunarizine, 0.5% timolol, or flunarizine/beta-blocker combinations
Description: The effects of the agent of the invention on the intraocular pressure of rabbits showing normal baseline intraocular pressure were evaluated in comparison with the action of a placebo, and with that of various other calcium channel blocking agents. Female pigmented rabbits of the Vienna Blue strain were used (supplied by Charles River Italiana, of Calco (CO)). The age of the animals at the time of starting the experimentation was 9 weeks, and their weight was 2.0-2.5 kg.
The choice of a species with pigmented iris is due to the fact that the latter represents a reliable model for the evaluation of possible modifications of the intraocular pressure caused by the products under test. The strain chosen is genetically defined, so as to limit to a minimum the variability of the biological characteristics between one animal and the other.
The animals were kept in rooms maintained under constant and controlled conditions of temperature and humidity, illuminated for 12 hours a day with artificial light and with continuous renovation of the air. The feed consisted of a standard diet having a constant and known composition, and both feed and water were available ad libitum during the whole period of the test. The rabbits were stabled for 21 days before starting the test, so as to allow a sufficient acclimatation and to suitably evaluate the health conditions of the rabbits. Each experimental group consisted of 4 animals, which were allotted to the treatment groups in a randomised way.
Each different group of animals received, by instillation in the right conjunctival fornix, 50 μl of the following products:
The weight concentrations of the various agents under test are chosen so as to correspond to the same molar concentration.
The pressure in the treated eye was measured by flattening tonometer (TonopenXL®, Mentor), 15 minutes before the instillation of the eyerops (time 0) and then 30, 60, 90, 120, 180 and 240 minutes after. As a local anaesthetic, 5 minutes before carrying out each measurement 25 μl of a commercial ophthalmic solution containing 0.4% oxybuprocaine hydrochloride (Novesine®, Sandoz) was instilled. To carry out the measurement the rabbits were placed in a suitably designed cage, that prevents any sudden movement of the animal under test.
For each animal and at each of the times listed above the average of three subsequent measurements was calculated and recorded, each one said measurements being made after 1 minute from the previous one. The intraocular pressure values at the various times were compared with the values obtained before the treatment, by means of the Student's “t” test. The comparisons between different groups were made by processing the data by the variance analysis (ANOVA) and, where possible, by the Student's “t” test for the comparison of two different experimental groups. Values of p<0.05 were considered to be statistically significant.

[2] = system: intraocular pressure of rabbits with ocular hypertension; assay: Intraocular pressure in rabbits with ocular hypertension induced by α-chymotrypsin; assay type: in vivo, rabbit (Vienna Blue, pigmented); conditions: Table 5, hypertensive rabbits, 50 μl eye-drops: 0.050% flunarizine, 0.5% timolol, or flunarizine/beta-blocker combinations
Description: Rabbits of the same type as those described in the previous section were used for the following tests.
In the rabbit, the injection of this enzyme in the posterior chamber causes, after one month from the administration, an effect of ocular hypertension.
At the end of the quarantine period the rabbits were anaesthetised by intramuscular administration of ketamine hydrochloride and xylazine hydrochloride (RBI). The right eye was gently pushed outwardly after instilling 25 μl of Novesine® eye-drops, containing oxybuprocaine as an anaesthetic; then, a sterile solution of σ-chymotrypsin (SIGMA, Milan; 150 units in 100 μl of physiologic sterile solution) was injected in the posterior chamber of the right eye by means of a 30G sterile needle. After the administration of the enzyme, the eye was thoroughly washed with physiologic sterile solution in order to remove any traces of α-chymotrypsin which could damage the ocular tissues. Then, 2 drops of a commercial ophthalmic antibiotic solution (Colbiocin®, SIFI S.p.A., containing chloramphenicol, rolitetracycline, colistin methanesulphonate) were instilled. The treatment was carried out 3 times a day (at 8.00 a.m., 12.00 a.m. and 6.00 p.m.) for one week after the administration of α-chymotrypsin. The rabbits were employed in the tests after one month from the induction of ocular hypertension by means of the enzyme.
The rabbits, divided also in this case in groups of 4 animals, were treated by instillation of 50 μl of the product under test in the right conjunctival fornix.
The intraocular pressure in the treated eye was measured, according to the same procedure as in the previous tests, 15 minutes before the instillation of the eye-drops and 30, 60, 90, 120, 180 and 240 minutes after. The values obtained were statistically analysed according to the criteria mentioned in the foregoing.
The experimental conditions were exactly the same as before.

[3] = average ± S.D. of 4 rabbits, 30 min after instillation
[4] = average ± S.D. of 4 rabbits, 60 min after instillation
[5] = average ± S.D. of 4 rabbits, 90 min after instillation
[6] = average ± S.D. of 4 rabbits, 120 min after instillation
[7] = average ± S.D. of 4 rabbits, 180 min after instillation
[8] = average ± S.D. of 4 rabbits, 240 min after instillation
[9] = average ± S.D. of 4 rabbits, time 0 = 15 min before instillation (baseline)
[10] = individual rabbit, right eye, 30 min after instillation
[11] = individual rabbit, right eye, 60 min after instillation
[12] = individual rabbit, right eye, 90 min after instillation
[13] = individual rabbit, right eye, 120 min after instillation
[14] = individual rabbit, right eye, 180 min after instillation
[15] = individual rabbit, right eye, 240 min after instillation
[16] = individual rabbit, right eye, time 0 = 15 min before instillation (baseline)

`CC(C)(C)NC[C@H](O)COc1nsnc1N1CCOCC1` [timolol] was tested, and the “Intraocular pressure (mmHg) at the time (min): 30, average ± S.D.” value [1, 3] was 14.7 ± 0.5 mmHg, the “Intraocular pressure (mmHg) at the time (min): 60, average ± S.D.” value [1, 4] was 13.5 ± 0.6 mmHg and the “Intraocular pressure (mmHg) at the time (min): 90, average ± S.D.” value [1, 5] was 14.5 ± 0.6 mmHg. The “Intraocular pressure (mmHg) at the time (min): 120, average ± S.D.” value [1, 6] was 15.5 ± 0.6 mmHg, the “Intraocular pressure (mmHg) at the time (min): 180, average ± S.D.” value [1, 7] was 16.0 ± 0.6 mmHg and the “Intraocular pressure (mmHg) at the time (min): 240, average ± S.D.” value [1, 8] was 16.0 ± 0.8 mmHg. The “Intraocular pressure (mmHg) at the time (min): 0, average ± S.D.” value [1, 9] was 15.7 ± 0.5 mmHg, the “Intraocular pressure (mmHg) at the time (min): 30” value [1, 10] was 15 mmHg (3×) and 14 mmHg and the “Intraocular pressure (mmHg) at the time (min): 60” value [1, 11] was 14 mmHg (2×) and 13 mmHg (2×). For the same molecule, the “Intraocular pressure (mmHg) at the time (min): 90” value [1, 12] was 14 mmHg (2×) and 15 mmHg (2×), the “Intraocular pressure (mmHg) at the time (min): 120” value [1, 13] was 15 mmHg (2×) and 16 mmHg (2×) and the “Intraocular pressure (mmHg) at the time (min): 180” value [1, 14] was 16 mmHg (2×) and 17 mmHg and 15 mmHg. The “Intraocular pressure (mmHg) at the time (min): 240” value [1, 15] was 16 mmHg (2×) and 17 mmHg and 15 mmHg, the “Intraocular pressure (mmHg) at the time (min): 0” value [1, 16] was 16 mmHg (3×) and 15 mmHg and the “Intraocular pressure (mmHg) at the time (min): 30, average ± S.D.” value [2, 3] was 41.7 ± 4.7 mmHg. For the same molecule, the “Intraocular pressure (mmHg) at the time (min): 60, average ± S.D.” value [2, 4] was 39.7 ± 2.9 mmHg, the “Intraocular pressure (mmHg) at the time (min): 90, average ± S.D.” value [2, 5] was 39.7 ± 2.6 mmHg and the “Intraocular pressure (mmHg) at the time (min): 120, average ± S.D.” value [2, 6] was 42.5 ± 3.5 mmHg. The “Intraocular pressure (mmHg) at the time (min): 180, average ± S.D.” value [2, 7] was 46.0 ± 4.9 mmHg, the “Intraocular pressure (mmHg) at the time (min): 240, average ± S.D.” value [2, 8] was 48.2 ± 4.4 mmHg and the “Intraocular pressure (mmHg) at the time (min): 0, average ± S.D.” value [2, 9] was 49.0 ± 5.3 mmHg. The “Intraocular pressure (mmHg) at the time (min): 30” value [2, 10] was 43 mmHg and 45 mmHg and 39 mmHg and 40 mmHg, the “Intraocular pressure (mmHg) at the time (min): 60” value [2, 11] was 42 mmHg (2×) and 39 mmHg and 36 mmHg and the “Intraocular pressure (mmHg) at the time (min): 90” value [2, 12] was 42 mmHg (2×) and 38 mmHg and 37 mmHg. The “Intraocular pressure (mmHg) at the time (min): 120” value [2, 13] was 46 mmHg and 45 mmHg and 39 mmHg and 40 mmHg, the “Intraocular pressure (mmHg) at the time (min): 180” value [2, 14] was 52 mmHg and 48 mmHg and 42 mmHg (2×) and the “Intraocular pressure (mmHg) at the time (min): 240” value [2, 15] was 53 mmHg and 51 mmHg and 45 mmHg and 44 mmHg. For the same molecule, the “Intraocular pressure (mmHg) at the time (min): 0” value [2, 16] was 53 mmHg and 54 mmHg and 46 mmHg and 43 mmHg.
